Source: patent US10829473B2, “Modulators of the cystic fibrosis transmembrane conductance regulator protein and methods of use” (AbbVie Overseas S.Á.R.L., priority 2017, dated 2020)
Like-named read-outs stand apart in the source and are kept apart here. Marks after values point to notes of the source that are not given here. One block for each molecule: values may come before it.

Biological target: T1, F508delCFTR (Homo sapiens, UniProt P13569, DEL508-508)
T1 construct: expressed in transfected cells; host or cells: CFBE41o- human lung derived epithelial cells (CFBE41o-F508delCFTR-HRP), doxycycline-inducible
Experiment: Cell Surface Expression-Horse Radish Peroxidase (CSE-HRP) Assay;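 for EC50 (with co-corrector): co-corrector chromenyl benzoic acid corrector at 2 or 3 µM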;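 for Maximum % activity (without co-corrector): % of on-plate positive control chromenyl benzoic acid corrector at 2 or 3 µM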
Assay type: cell-based
Conditions: for Maximum % activity (with co-corrector) / Emax: maximum at any tested concentration; for Emax: read-out: Maximum % activity (without co-corrector)
Method in brief: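 Corrector compounds were given as 8-point 3-fold series from 20 or 30 μM, with or without a 2 μM co-corrector, for 18-24 h at 33 °C. Surface HRP was read by luminol luminescence as % of positive control; variable-Hill-slope sigmoidal fitting gave EC50 from triplicate plates.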

[1] = test compound alone, without co-corrector, read-out: EC50 (without co-corrector)
[2] = with co-corrector, read-out: EC50 (with co-corrector)
[3] = test compound with co-corrector
[4] = test compound with co-corrector, read-out: EC50 (with co-corrector)
[5] = test compound without co-corrector
[6] = test compound without co-corrector, read-out: EC50 (without co-corrector)

T1 sequence (P13569 with tags, fused parts or gaps DEL508-508): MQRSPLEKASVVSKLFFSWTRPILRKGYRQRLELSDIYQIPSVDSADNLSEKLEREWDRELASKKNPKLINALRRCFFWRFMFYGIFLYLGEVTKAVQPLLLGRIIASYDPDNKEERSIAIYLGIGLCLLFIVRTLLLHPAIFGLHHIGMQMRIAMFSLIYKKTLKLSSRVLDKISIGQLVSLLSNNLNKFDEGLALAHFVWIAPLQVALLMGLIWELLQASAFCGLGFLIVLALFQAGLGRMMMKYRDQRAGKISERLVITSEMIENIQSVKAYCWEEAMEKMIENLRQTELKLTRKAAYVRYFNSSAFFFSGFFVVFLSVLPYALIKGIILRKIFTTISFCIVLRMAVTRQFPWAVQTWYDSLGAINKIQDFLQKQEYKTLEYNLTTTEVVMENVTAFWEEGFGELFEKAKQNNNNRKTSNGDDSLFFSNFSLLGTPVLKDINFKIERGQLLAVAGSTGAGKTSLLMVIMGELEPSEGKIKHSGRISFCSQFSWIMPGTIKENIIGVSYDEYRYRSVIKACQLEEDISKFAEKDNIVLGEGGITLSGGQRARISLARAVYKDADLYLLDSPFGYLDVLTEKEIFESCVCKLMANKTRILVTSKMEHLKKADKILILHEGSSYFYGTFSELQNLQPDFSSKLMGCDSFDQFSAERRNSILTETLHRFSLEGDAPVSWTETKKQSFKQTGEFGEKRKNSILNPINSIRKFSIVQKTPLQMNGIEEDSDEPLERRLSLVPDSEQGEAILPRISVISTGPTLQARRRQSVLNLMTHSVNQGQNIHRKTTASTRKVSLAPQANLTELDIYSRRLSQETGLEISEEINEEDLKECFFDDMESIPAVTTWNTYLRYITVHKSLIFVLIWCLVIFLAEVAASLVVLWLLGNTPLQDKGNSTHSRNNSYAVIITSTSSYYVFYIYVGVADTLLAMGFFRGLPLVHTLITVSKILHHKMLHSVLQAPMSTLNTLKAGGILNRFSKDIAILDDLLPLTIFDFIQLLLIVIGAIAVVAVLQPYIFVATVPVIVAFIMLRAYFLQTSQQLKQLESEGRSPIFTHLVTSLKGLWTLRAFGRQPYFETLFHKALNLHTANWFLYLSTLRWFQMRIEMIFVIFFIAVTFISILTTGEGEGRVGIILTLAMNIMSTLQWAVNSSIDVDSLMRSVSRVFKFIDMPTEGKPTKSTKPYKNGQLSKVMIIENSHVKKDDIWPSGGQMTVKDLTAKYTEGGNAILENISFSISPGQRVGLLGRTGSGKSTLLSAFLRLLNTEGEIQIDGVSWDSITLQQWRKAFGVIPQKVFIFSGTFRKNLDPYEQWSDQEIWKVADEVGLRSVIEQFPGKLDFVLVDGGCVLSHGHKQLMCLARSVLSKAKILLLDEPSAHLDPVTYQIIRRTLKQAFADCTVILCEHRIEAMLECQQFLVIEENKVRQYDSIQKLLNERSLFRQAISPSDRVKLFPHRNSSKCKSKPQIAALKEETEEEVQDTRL

EC50 [1]: 3 to 10 µM
Maximum % activity (with co-corrector) (with co-corrector): +++ (≥350)
EC50 [2]: < 3 µM
Emax (without co-corrector): 50 to 150%
SMILES: COc1ncc(C2CCC2)c(C)c1C1(C(=O)NS(=O)(=O)c2cccc3ccn(C)c23)CC1 [II-42]

EC50 [1]: > 10 µM
Maximum % activity (with co-corrector) (with co-corrector): + (<150)
EC50 [2]: > 10 µM
Emax (without co-corrector): < 50%
SMILES: CCCS(=O)(=O)NC(=O)C1(c2ccc(Cl)cc2Cl)CC1 [Example III-107, 1-(2,4-dichlorophenyl)-N-(propane-1-sulfonyl)cyclopropane-1-carboxamide]

EC50 [1]: 3 to 10 µM
Maximum % activity (with co-corrector) (with co-corrector): +++ (≥350)
EC50 [2]: < 3 µM
Emax (without co-corrector): > 150%
SMILES: Cc1ccc(O[C@H]2CCOC2)c(C2(C(=O)NS(=O)(=O)c3cccc4ncccc34)CC2)c1 [II-117]

EC50 [1]: 3 to 10 µM
Maximum % activity (with co-corrector) (with co-corrector): +++ (≥350)
EC50 [2]: < 3 µM
Emax (without co-corrector): > 150%
SMILES: COc1ccc(C(C)(C)OC)cc1C1(C(=O)NS(=O)(=O)c2cccc3[nH]ccc23)CC1 [II-88]

EC50 [1]: 3 to 10 µM
Maximum % activity (with co-corrector) (with co-corrector): +++ (≥350)
EC50 [2]: < 3 µM
Emax (without co-corrector): > 150%
SMILES: COc1ccc(C2(OC)CCC2)cc1C1(C(=O)NS(=O)(=O)c2cccc3nc(C)ccc23)CC1 [II-100]

EC50 (with co-corrector) [3]: ++^a
Maximum % activity (with co-corrector) [3]: ++ (≥150 and <350)
EC50 (without co-corrector) [5]: ++^a
Emax [5]: < 50%
SMILES: COc1ccc(C2(C(=O)NS(=O)(=O)c3cccc4c3CCCN4)CC2)c(C)n1 [GIII-15]

EC50 [1]: > 10 µM
Maximum % activity (with co-corrector) (with co-corrector): ++ (≥150 and <350)
EC50 [2]: 3 to 10 µM
Emax (without co-corrector): < 50%
SMILES: O=C(NS(=O)(=O)c1ccccc1)C1(c2ccc(F)cc2)CC1 [Example III-31, N-(benzenesulfonyl)-1-(4-fluorophenyl)cyclopropane-1-carboxamide]

Maximum % activity (with co-corrector) [3]: +++ (≥350)
EC50 [4]: 3 to 10 µM
Emax [5]: 50 to 150%
EC50 [6]: 3 to 10 µM
SMILES: Cc1cnc(N2CCCC2)c(C2(C(=O)NS(=O)(=O)c3cccc4nc(C)ccc34)CC2)c1 [GII-36, 1-[5-methyl-2-(pyrrolidin-1-yl)pyridin-3-yl]-N-(2-methylquinoline-5-sulfonyl)cyclopropane-1-carboxamide]

EC50 [1]: < 3 µM
Maximum % activity (with co-corrector) (with co-corrector): +++ (≥350)
EC50 [2]: < 3 µM
Emax (without co-corrector): > 150%
SMILES: COC[C@H](C)Oc1ccc(C)cc1C1(C(=O)NS(=O)(=O)c2cccc3ncccc23)CC1 [II-92]

Maximum % activity (with co-corrector) [3]: ++ (≥150 and <350)
EC50 [4]: 3 to 10 µM
EC50 (without co-corrector) [5]: ++^a
Emax [5]: 50 to 150%
SMILES: COCCOc1ncc(OC)cc1C1(C(=O)NS(=O)(=O)c2cccc3nc(C)ccc23)CC1 [GII-42, 1-[5-methoxy-2-(2-methoxyethoxy)pyridin-3-yl]-N-(2-methylquinoline-5-sulfonyl)cyclopropane-1-carboxamide]

EC50 [1]: 3 to 10 µM
Maximum % activity (with co-corrector) (with co-corrector): +++ (≥350)
EC50 [2]: < 3 µM
Emax (without co-corrector): > 150%
SMILES: COc1cccc(C)c1C1(C(=O)NS(=O)(=O)c2cccc3ccc(C)nc23)CC1 [II-45]

EC50 [1]: 3 to 10 µM
Maximum % activity (with co-corrector) (with co-corrector): +++ (≥350)
EC50 [2]: < 3 µM
Emax (without co-corrector): > 150%
SMILES: COc1cccc(C)c1C1(C(=O)NS(=O)(=O)c2cccc3nc(C)ccc23)CC1 [II-50]

EC50 [1]: > 10 µM
Maximum % activity (with co-corrector) (with co-corrector): ++ (≥150 and <350)
EC50 [2]: 3 to 10 µM
Emax (without co-corrector): < 50%
SMILES: O=C(NS(=O)(=O)Cc1ccccc1)C1(c2ccc(Cl)cc2Cl)CC1 [Example III-104, 1-(2,4-dichlorophenyl)-N-(phenylmethanesulfonyl)cyclopropane-1-carboxamide]

The remaining lines, values behind:

SMILES: COc1ccc(OC)c(C2(C(=O)NS(=O)(=O)c3cccc4ccccc34)CC2)c1 [Example I-28, 1-(2,5-dimethoxyphenyl)-N-(naphthalene-1-sulfonyl)cyclopropane-1-carboxamide]
EC50 [1]: < 3 µM
Maximum % activity (with co-corrector) (with co-corrector): +++ (≥350)
EC50 [2]: < 3 µM
Emax (without co-corrector): > 150%

SMILES: COc1ccc(C(C)C)cc1C1(C(=O)NS(=O)(=O)c2cccc3ncccc23)CC1 [Example I-35, 1-[2-methoxy-5-(propan-2-yl)phenyl]-N-(quinoline-5-sulfonyl)cyclopropane-1-carboxamide]
EC50 [1]: < 3 µM
Maximum % activity (with co-corrector) (with co-corrector): +++ (≥350)
EC50 [2]: < 3 µM
Emax (without co-corrector): > 150%

SMILES: CC(C)Oc1ncc(N2CCC2)cc1C1(C(=O)NS(=O)(=O)c2cccc3ncccc23)CC1 [Example GI-83, 1-{5-(azetidin-1-yl)-2-[(propan-2-yl)oxy]pyridin-3-yl}-N-(quinoline-5-sulfonyl)cyclopropane-1-carboxamide]
Maximum % activity (with co-corrector) [3]: +++ (≥350)
EC50 [4]: < 3 µM
Emax [5]: > 150%
EC50 [6]: 3 to 10 µM

SMILES: Cc1cnc(OCC2CC2)c(C2(C(=O)NS(=O)(=O)c3cccc4nc(C)ccc34)CC2)c1 [Example GI-101, 1-[2-(cyclopropylmethoxy)-5-methylpyridin-3-yl]-N-(2-methylquinoline-5-sulfonyl)cyclopropane-1-carboxamide]
Maximum % activity (with co-corrector) [3]: +++ (≥350)
EC50 [4]: < 3 µM
Emax [5]: > 150%
EC50 [6]: 3 to 10 µM

SMILES: CC(C)Oc1ncc(Br)cc1C1(C(=O)NS(=O)(=O)c2cccc3ncccc23)CC1 [Example GI-1, 1-{5-bromo-2-[(propan-2-yl)oxy]pyridin-3-yl}-N-(quinoline-5-sulfonyl)cyclopropane-1-carboxamide]
EC50 [1]: < 3 µM
Maximum % activity (with co-corrector) (with co-corrector): +++ (≥350)
EC50 [2]: < 3 µM
Emax (without co-corrector): > 150%

SMILES: CCc1cnc(N2CCC(OC(C)C)CC2)c(C2(C(=O)NS(=O)(=O)c3cccc4[nH]ccc34)CC2)c1 [Example GI-102, 1-(5-ethyl-2-{4-[(propan-2-yl)oxy]piperidin-1-yl}pyridin-3-yl)-N-(1H-indole-4-sulfonyl)cyclopropane-1-carboxamide]
Maximum % activity (with co-corrector) [3]: +++ (≥350)
EC50 [4]: < 3 µM
Emax [5]: > 150%
EC50 [6]: 3 to 10 µM

SMILES: Cc1ccc2c(S(=O)(=O)NC(=O)C3(c4cc(C5CCC5)cnc4OCC(C)C)CC3)cccc2n1 [Example GI-53, 1-[5-cyclobutyl-2-(2-methylpropoxy)pyridin-3-yl]-N-(2-methylquinoline-5-sulfonyl)cyclopropane-1-carboxamide]
Maximum % activity (with co-corrector) [3]: +++ (≥350)
EC50 [4]: < 3 µM
Emax [5]: > 150%
EC50 [6]: < 3 µM

SMILES: COc1cc(OC(C)C)c(C2(C(=O)NS(=O)(=O)c3cccc4nc(C)ccc34)CC2)cn1 [Example GI-18, 1-{6-methoxy-4-[(propan-2-yl)oxy]pyridin-3-yl}-N-(2-methylquinoline-5-sulfonyl)cyclopropane-1-carboxamide]
EC50 [1]: 3 to 10 µM
Maximum % activity (with co-corrector) (with co-corrector): +++ (≥350)
EC50 [2]: < 3 µM
Emax (without co-corrector): > 150%

SMILES: COc1ccc(C(C)(C)OC)cc1C1(C(=O)NS(=O)(=O)c2cccc3ncccc23)CC1 [Example I-52, 1-[2-methoxy-5-(2-methoxypropan-2-yl)phenyl]-N-(quinoline-5-sulfonyl)cyclopropane-1-carboxamide]
EC50 [1]: < 3 µM
Maximum % activity (with co-corrector) (with co-corrector): +++ (≥350)
EC50 [2]: < 3 µM
Emax (without co-corrector): > 150%

SMILES: COc1cnc(OC(C)C)c(C2(C(=O)NS(=O)(=O)c3cccc4[nH]ccc34)CC2)c1 [Example GI-75, N-(1H-indole-4-sulfonyl)-1-{5-methoxy-2-[(propan-2-yl)oxy]pyridin-3-yl}cyclopropane-1-carboxamide]
Maximum % activity (with co-corrector) [3]: +++ (≥350)
EC50 [4]: < 3 µM
Emax [5]: > 150%
EC50 [6]: 3 to 10 µM

SMILES: CCc1ccc(OC)c(C2(C(=O)NS(=O)(=O)c3cccc4nc(C)ccc34)CC2)c1 [Example I-84, 1-(5-ethyl-2-methoxyphenyl)-N-(2-methylquinoline-5-sulfonyl)cyclopropane-1-carboxamide]
EC50 [1]: < 3 µM
Maximum % activity (with co-corrector) (with co-corrector): +++ (≥350)
EC50 [2]: < 3 µM
Emax (without co-corrector): > 150%

SMILES: CC(C)Oc1cnc(C2CCC2)cc1C1(C(=O)NS(=O)(=O)c2cccc3[nH]ccc23)CC1 [Example GI-27, 1-{2-cyclobutyl-5-[(propan-2-yl)oxy]pyridin-4-yl}-N-(1H-indole-4-sulfonyl)cyclopropane-1-carboxamide]
EC50 [1]: 3 to 10 µM
Maximum % activity (with co-corrector) (with co-corrector): +++ (≥350)
EC50 [2]: < 3 µM
Emax (without co-corrector): > 150%

SMILES: COc1ccc(Br)cc1C1(C(=O)NS(=O)(=O)c2cccc3ncccc23)CC1 [Example I-18, 1-(5-bromo-2-methoxyphenyl)-N-(quinoline-5-sulfonyl)cyclopropane-1-carboxamide]
EC50 [1]: < 3 µM
Maximum % activity (with co-corrector) (with co-corrector): +++ (≥350)
EC50 [2]: < 3 µM
Emax (without co-corrector): > 150%

SMILES: Cc1ccc2c(S(=O)(=O)NC(=O)C3(c4cc(C5CCC5)cnc4N4CCC(OC(C)C)CC4)CC3)cccc2n1 [Example GI-113, 1-(5-cyclobutyl-2-{4-[(propan-2-yl)oxy]piperidin-1-yl}pyridin-3-yl)-N-(2-methylquinoline-5-sulfonyl)cyclopropane-1-carboxamide]
Maximum % activity (with co-corrector) [3]: +++ (≥350)
EC50 [4]: < 3 µM
Emax [5]: > 150%
EC50 [6]: < 3 µM

SMILES: COc1nc2ccccc2cc1C1(C(=O)NS(=O)(=O)c2cccc3nc(C)ccc23)CC1 [Example I-75, 1-(2-methoxyquinolin-3-yl)-N-(2-methylquinoline-5-sulfonyl)cyclopropane-1-carboxamide]
EC50 [1]: 3 to 10 µM
Maximum % activity (with co-corrector) (with co-corrector): +++ (≥350)
EC50 [2]: < 3 µM
Emax (without co-corrector): > 150%
